Test: Essential fatty acid (EFA) parameters in plasma and RBC, gas chromatography of fatty acid methyl esters
Assay type: in vivo, human
Procedure: Blood samples (10 mL) were collected at Visit 1 (screening) and at Visits 4, 5 and 6. Analysis was performed by MSR Lipid Analysis, Scottish Crop Research Institute, Dundee, UK. The screening sample acted as baseline for the EFA measurements. Lipid was extracted from plasma, serum and RBC suspensions and converted into fatty acid methyl esters which were analyzed by gas chromatography to give fatty acid profiles as micrograms fatty acid per gram of sample (μgFA/g) and normalized area percent.
RBC and plasma EFA data were collected at baseline, Day 14, 28 and 42 and summarized by visit for each treatment group. Change from baseline and percent change from baseline were also summarized. ANCOVA comparison of ethyl-EPA dose groups and ethyl-EPA versus placebo was performed.
Notable changes for these parameters occurred in the ethyl-EPA treatment groups at Days 14, 28 and 42 compared to placebo.

[1] = plasma, 1 g daily group, Baseline
[2] = plasma, 2 g daily group, Baseline
[3] = plasma, 4 g daily group, Baseline

CC/C=C\C/C=C\C/C=C\C/C=C\C/C=C\CCCC(=O)OCC [Ethyl-EPA, all-cis eicosa-5,8,11,14,17-pentaenoic acid ethyl ester]
EPA, DPAn-3 and EPA/AA ratio values, change from baseline (plasma and RBC, to Day 42, 1, 2 and 4 g): increased substantially from baseline
AA, DHA and DGLA values, change from baseline (plasma and RBC, to day 42, 1, 2 and 4 g): decreased substantially from baseline
AA Mean at Baseline [1]: 202.5 µg/g
DGLA Mean at Baseline [1]: 51.2 µg/g
DHA Mean at Baseline [1]: 73.1 µg/g
DPAn-3 Mean at Baseline [1]: 21.1 µg/g
EPA Mean at Baseline [1]: 48.3 µg/g
EPA/AA Mean (SD) at Baseline [1]: 0.2 (0.14)
AA Mean change from Baseline (plasma, 1 g daily, Day 14): -9.7 µg/g
DGLA Mean change from Baseline (plasma, 1 g daily, Day 14): -10.4 µg/g
DHA Mean change from Baseline (plasma, 1 g daily, Day 14): -6.4 µg/g
DPAn-3 Mean change from Baseline (plasma, 1 g daily, Day 14): 7.5 µg/g
EPA Mean change from Baseline (plasma, 1 g daily, Day 14): 61.2 µg/g
EPA/AA Mean (SD) change from Baseline (plasma, 1 g daily, Day 14): 0.3 (0.4)
AA Mean change from Baseline (plasma, 1 g daily, Day 28): -11.3 µg/g
DGLA Mean change from Baseline (plasma, 1 g daily, Day 28): -10.6 µg/g
DHA Mean change from Baseline (plasma, 1 g daily, Day 28): -6.6 µg/g
DPAn-3 Mean change from Baseline (plasma, 1 g daily, Day 28): 8.9 µg/g
EPA Mean change from Baseline (plasma, 1 g daily, Day 28): 60.3 µg/g
EPA/AA Mean (SD) change from Baseline (plasma, 1 g daily, Day 28): 0.3 (0.20)
AA Mean change from Baseline (plasma, 1 g daily, Day 42): -8.7 µg/g
DGLA Mean change from Baseline (plasma, 1 g daily, Day 42): -9.4 µg/g
DHA Mean change from Baseline (plasma, 1 g daily, Day 42): -5.4 µg/g
DPAn-3 Mean change from Baseline (plasma, 1 g daily, Day 42): 11.3 µg/g
EPA Mean change from Baseline (plasma, 1 g daily, Day 42): 62.0 µg/g
EPA/AA Mean (SD) change from Baseline (plasma, 1 g daily, Day 42): 0.3 (0.24)
AA LS Mean, 1 or 2 g versus 4 g (plasma, 1 g versus 4 g): 4.2 µg/g
DGLA LS Mean, 1 or 2 g versus 4 g (plasma, 1 g versus 4 g): 3.7 µg/g
DHA LS Mean, 1 or 2 g versus 4 g (plasma, 1 g versus 4 g): -0.8 µg/g
DPAn-3 LS Mean, 1 or 2 g versus 4 g (plasma, 1 g versus 4 g): -15.1 µg/g
EPA LS Mean, 1 or 2 g versus 4 g (plasma, 1 g versus 4 g): -111.8 µg/g
EPA/AA LS Mean, 1 or 2 g versus 4 g (plasma, 1 g versus 4 g): −0.66
AA Mean at Baseline [2]: 227.3 µg/g
DGLA Mean at Baseline [2]: 53.5 µg/g
DHA Mean at Baseline [2]: 75.1 µg/g
DPAn-3 Mean at Baseline [2]: 19.7 µg/g
EPA Mean at Baseline [2]: 4.49 µg/g
EPA/AA Mean at Baseline [2]: 0.2
AA Mean change from Baseline (plasma, 2 g daily, Day 14): -13.9 µg/g
DGLA Mean change from Baseline (plasma, 2 g daily, Day 14): -14.1 µg/g
DHA Mean change from Baseline (plasma, 2 g daily, Day 14): -5.4 µg/g
DPAn-3 Mean change from Baseline (plasma, 2 g daily, Day 14): 17.4 µg/g
EPA Mean change from Baseline (plasma, 2 g daily, Day 14): 124.6 µg/g
EPA/AA Mean change from Baseline (plasma, 2 g daily, Day 14): 0.6
AA Mean change from Baseline (plasma, 2 g daily, Day 28): 21.6 µg/g
DGLA Mean change from Baseline (plasma, 2 g daily, Day 28): -16.2 µg/g
DHA Mean change from Baseline (plasma, 2 g daily, Day 28): -8.1 µg/g
DPAn-3 Mean change from Baseline (plasma, 2 g daily, Day 28): 19.4 µg/g
EPA Mean change from Baseline (plasma, 2 g daily, Day 28): 142.2 µg/g
EPA/AA Mean change from Baseline (plasma, 2 g daily, Day 28): 0.8
AA Mean change from Baseline (plasma, 2 g daily, Day 42): -27.3 µg/g
DGLA Mean change from Baseline (plasma, 2 g daily, Day 42): -17.3 µg/g
DHA Mean change from Baseline (plasma, 2 g daily, Day 42): -6.0 µg/g
DPAn-3 Mean change from Baseline (plasma, 2 g daily, Day 42): 19.3 µg/g
EPA Mean change from Baseline (plasma, 2 g daily, Day 42): 133.4 µg/g
EPA/AA Mean change from Baseline (plasma, 2 g daily, Day 42): 0.7
AA LS Mean, 1 or 2 g versus 4 g (plasma, 2 g versus 4 g): 15.6 µg/g
DGLA LS Mean, 1 or 2 g versus 4 g (plasma, 2 g versus 4 g): 2.5 µg/g
DHA LS Mean, 1 or 2 g versus 4 g (plasma, 2 g versus 4 g): 1.5 µg/g
DPAn-3 LS Mean, 1 or 2 g versus 4 g (plasma, 2 g versus 4 g): -9.5 µg/g
EPA LS Mean, 1 or 2 g versus 4 g (plasma, 2 g versus 4 g): -60.9 µg/g
EPA/AA LS Mean, 1 or 2 g versus 4 g (plasma, 2 g versus 4 g): −0.41
AA Mean (SD) at Baseline [3]: 220.9 (42.80) μg/g
DGLA Mean at Baseline [3]: 57.1 µg/g
DHA Mean at Baseline [3]: 78.8 µg/g
DPAn-3 Mean at Baseline [3]: 21.7 µg/g
EPA Mean at Baseline [3]: 49.1 µg/g
EPA/AA Mean (SD) at Baseline [3]: 0.2 (0.07)
AA Mean (SD) change from Baseline (plasma, 4 g daily, Day 14): −27.2 (28.89) μg/g
DGLA Mean change from Baseline (plasma, 4 g daily, Day 14): -22.9 µg/g
DHA Mean change from Baseline (plasma, 4 g daily, Day 14): -10.3 µg/g
DPAn-3 Mean change from Baseline (plasma, 4 g daily, Day 14): 24.5 µg/g
EPA Mean change from Baseline (plasma, 4 g daily, Day 14): 207.7 µg/g
EPA/AA Mean (SD) change from Baseline (plasma, 4 g daily, Day 14): 1.1 (0.28)
AA Mean (SD) change from Baseline (plasma, 4 g daily, Day 28): −43.7 (32.24) μg/g
DGLA Mean change from Baseline (plasma, 4 g daily, Day 28): -24.2 µg/g
DHA Mean change from Baseline (plasma, 4 g daily, Day 28): -13.5 µg/g
DPAn-3 Mean change from Baseline (plasma, 4 g daily, Day 28): 29.7 µg/g
EPA Mean change from Baseline (plasma, 4 g daily, Day 28): 215.2 µg/g
EPA/AA Mean (SD) change from Baseline (plasma, 4 g daily, Day 28): 1.3 (0.42)
AA Mean (SD) change from Baseline (plasma, 4 g daily, Day 42): −48.3 (22.20) μg/g
DGLA Mean change from Baseline (plasma, 4 g daily, Day 42): -22.5 µg/g
DHA Mean change from Baseline (plasma, 4 g daily, Day 42): -13.8 µg/g
DPAn-3 Mean change from Baseline (plasma, 4 g daily, Day 42): 32.0 µg/g
EPA Mean change from Baseline (plasma, 4 g daily, Day 42): 204.6 µg/g
EPA/AA Mean (SD) change from Baseline (plasma, 4 g daily, Day 42): 1.3 (0.45)

From patent US11439618B2, “Compositions and methods for lowering triglycerides” (Amarin Pharmaceuticals Ireland Limited, priority 2009, dated 2022)
